Laboratory results from PubChem BioAssay (NCI).
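Results reflect a 48-hour exposure of cells in 96-well plates to compound at five concentrations. The concentration for 50% growth inhibition is given as GI50. At the TGI there is no net growth.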

How the values were obtained:
Experiment in all cases: growth of human tumour cells (NCI), 48 h
[1] = tested on: T-47D breast
[2] = tested on: SNB-19 CNS
[3] = tested on: HL-60(TB) leukemia
[4] = tested on: ACHN renal
[5] = tested on: M14 melanoma
[6] = tested on: UACC-62 melanoma
[7] = tested on: DU-145 prostate
[8] = tested on: MDA-MB-231 breast
[9] = tested on: MDA-N
[10] = tested on: KM20L2 colon

| SMILES | GI50 [1] [µM] | TGI [1] [µM] | GI50 [2] [µM] | TGI [2] [µM] | GI50 [3] [µM] | TGI [3] [µM] | GI50 [4] [µM] | TGI [4] [µM] | GI50 [5] [µM] | TGI [5] [µM] | GI50 [6] [µM] | TGI [6] [µM] | GI50 [7] [µM] | TGI [7] [µM] | GI50 [8] [µM] | TGI [8] [µM] | GI50 [9] [µM] | TGI [9] [µM] | GI50 [10] [µM] | TGI [10] [µM] |
| --- | --- | --- | --- | --- | --- | --- | --- | --- | --- | --- | --- | --- | --- | --- | --- | --- | --- | --- | --- | --- |
| CC(=O)/C=C/c1ccc(N(CCO)Cc2ccc(C(C)(C)C)cc2)cc1 | 31 | 161 | 116 | 241 | 24.9 | 66.8 | 50.1 | 170 | 48.9 | 200 | 46.6 | 176 | 73.2 | 206 | 87.9 | 225 |  |  |  |  |
| CC(=N\O)/C(C)=N/O.CC(=N\O)/C(C)=N/O.[Fe].[NH2-].c1c[nH]cn1 | > 100 | > 100 | > 100 | > 100 | > 100 | > 100 | > 100 | > 100 | > 100 | > 100 | > 100 | > 100 | > 100 | > 100 | > 100 | > 100 | > 100 | > 100 |  |  |
| C[C@@H](Oc1cc(-c2cnn(C3CCNCC3)c2)cnc1N)c1c(Cl)cc(F)cc1Cl | 1.74 | 4.58 | 3.46 | 14.3 | 0.917 | 2.95 | 2.61 | 12 | 1.54 | 3.23 | 1.61 | 3.65 | 3.25 | 13.6 | 1.61 | 5.22 |  |  |  |  |
| COc1ccc(-c2nnc(Nc3nc(O)c(C4=c5cc(Br)ccc5=NC4=O)s3)o2)cc1 | 41.9 | > 100 | 28.1 | > 83.4 | 0.633 | 9.89 |  | 38.8 | 20.1 | 63.7 | 1.08 | 26.7 | 16.9 | > 56.3 | 0.421 | 10 |  |  |  |  |
| c1ccc2c(c1)[nH]c1c3ccccc3sc21 |  | > 100 |  | > 100 |  | > 100 |  | > 100 |  | > 100 |  | > 100 |  | > 100 |  | > 100 |  | > 100 |  |  |
| c1ccc(/C(=N\Nc2nc3ccccc3s2)c2ccccn2)cc1 |  | 52.5 |  | > 100 |  | 6.54 |  | > 28.8 |  | 22.6 |  | 27.5 |  | 30 |  | > 100 |  | > 100 |  |  |
| CC(=O)[CH-]C(=O)c1ccccc1.CC(=O)[CH-]C(=O)c1ccccc1.CC(=O)[CH-]C(=O)c1ccccc1.[Br-].[Zr+4] |  |  |  |  | 52.7 | > 100 | 54.3 | > 100 | 45 | > 100 | > 100 | > 100 |  |  |  |  |  |  | 51.6 | > 100 |
| Cn1cc(-c2nc(-c3cn(C)c4ncccc34)cs2)c2ccccc21 | 2.98 | 17 | 3.68 | 25.2 | 1.92 | > 100 | 3.67 | 79.4 | 0.955 | 20.4 | 1.35 | > 100 | 2.25 | 10.7 | 3.16 | 21.8 |  |  |  |  |
| C=C1C(=O)O[C@H]2[C@H]1CC/C(COC(=O)/C=C\C(=O)NCc1ccc(Cn3c(=O)sn(-c4ccc(Cl)cc4)c3=O)cc1)=C\CC[C@@]1(C)O[C@@H]21 | 0.881 | 2.15 | 0.831 | 1.67 | 0.696 | 2.52 | 0.404 | 1.03 | 0.639 | 1.48 | 0.724 | 1.47 | 0.638 | 1.3 | 0.758 | 1.76 |  |  |  |  |
| Cc1nn(-c2ccccc2)c2nc(C)n(-c3ccc(Br)cc3)c(=O)c12 | 0.427 | > 70.5 | 0.547 | > 100 | 0.286 | 3.07 | 0.584 | > 100 | 0.429 | > 100 | 0.428 | > 100 | 1.44 | > 100 | 1.45 | > 100 |  |  |  |  |
| C=CCN1C(=O)[C@]2(SC1=S)[C@H](c1cccc(Cl)c1)CN(C)[C@]21C(=O)NC2C=CC(Cl)=C[C@H]21 (some centres not stated) | 2.84 | 14.7 | 4.83 | 16.8 | 1.33 | 3.58 | 2.99 | 13.4 | 2.35 | 11.9 | 3.7 | 19.1 | 4.16 | 14.6 | 2 | 8.72 |  |  |  |  |
| NS(=O)(=O)c1cc(C(=O)O)c(Cl)c([N+](=O)[O-])c1Cl |  | > 100 |  | > 100 |  | > 100 |  | > 100 |  | > 100 |  | > 100 |  | > 100 |  | > 100 |  | > 100 |  |  |
| Nc1ncnc2c1ncn2CCCCC(=O)O |  | > 100 |  | > 100 |  |  |  | > 100 |  | > 100 |  | > 100 |  | > 100 |  | > 100 |  | > 100 |  |  |
| CCC(C(=O)[C@@H](C)[C@@H](O)[C@H](C)[C@@H]1O[C@@H]([C@@H](CC)C(=O)ONC(=O)c2ccccc2)CC[C@@H]1C)[C@H]1O[C@]2(C=CC(=O)[C@]3(CC[C@@](C)([C@H]4CC[C@](O)(CC)[C@H](C)O4)O3)O2)[C@H](C)C[C@@H]1C (some centres not stated) | 0.0463 | 2.98 | 0.588 | 3.43 | 0.0875 | 0.442 | 0.641 | 2.03 | 1.32 | 7.5 | 1.25 | 2.93 | 0.511 | 1.98 | 0.295 | 1.63 |  |  |  |  |
| C/C=C(\C)C(=O)O[C@@H]1C=CC(=O)O[C@H]1CNC(=O)[C@H](C)O | 21.9 | > 66.8 | 27 | > 74.8 | 8.67 | 32.3 | 15.9 | 31.2 | 18.6 | 49.1 | 16.9 | 37.7 | 22.6 | 69.1 | 21.8 | 45.5 |  |  |  |  |
| N#CC1=C(c2ccccc2)OC2(N)OC(c3ccccc3)=C(C#N)C12C#N (configuration not stated) |  |  |  | > 100 |  |  |  | > 100 |  | > 100 |  | > 100 |  |  |  |  |  |  |  | > 100 |
| C1=C\CCCCN2CC[C@H]3[C@H](CCCC/C=C\CCCN4C[C@@H](CCCCC/1)C[C@@H]3C4)C2 | 10 | 27.4 | 16.4 | 30.5 | 2.77 | 10.8 | 2.8 | 10.5 | 1.77 | 3.44 | 13.2 | 25.9 | 11.7 | 23.9 | 6.03 | 19.1 |  |  |  |  |
